Common to all, as to type: cell-based, mouse
Data set [1] relates to breast carcinoma F3II cells. Nature of the data set: Antiproliferative effect on growing F3II cells (toluidine test). The conditions noted are these: 10% fetal bovine serum. From the text:
The antiproliferative effect of the above mentioned compounds on breast carcinoma F3II cells is disclosed in the present example. The synthesized compounds are purine nucleoside derivatives which present chemical modifications in either the ribose and/or in the base. These modifications mainly consisted in acetylations of positions 2′-3′ of the ribose, varying the number of carbon atoms of the acyl substituents in position 5′. […] The cell growth was estimated by toluidine test, for which the cell monolayers were fixed with formalin (Formol 10%) and stained with toluidine blue 0.5%. Subsequently, the stained cells were thoroughly washed with PBS and solubilized with 1% SDS. Finally, the number of cells was estimated by measuring the absorbance values at 595 nm. The IC50 values of the compounds Nucl 1, Nucl 4 and Nucl 5, both for cells in the exponential growth phase and for quiescent cells, are depicted in Table 2.

In data set [2] the test system is breast carcinoma F3II cells. Nature of the data set: Effect on quiescent F3II cells / cytotoxicity (toluidine staining and MTT assay). The note with it: absence of FBS; for cytotoxic effect: 100 μM, 24 hours, semiconfluent monolayers, toluidine and MTT assay; for IC50: Quiescent Cells, F3II, 24 hs. As to the method: The antiproliferative effect of the above mentioned compounds on breast carcinoma F3II cells is disclosed in the present example. The synthesized compounds are purine nucleoside derivatives which present chemical modifications in either the ribose and/or in the base. These modifications mainly consisted in acetylations of positions 2′-3′ of the ribose, varying the number of carbon atoms of the acyl substituents in position 5′. The cells were treated for 72 hours in the presence of fetal bovine serum 10% with different doses of the compounds, with the aim of determining the inhibitory concentration 50% (IC50). The cell growth was estimated by toluidine test, for which the cell monolayers were fixed with formalin (Formol 10%) and stained with toluidine blue 0.5%. Subsequently, the stained cells were thoroughly washed with PBS and solubilized with 1% SDS. Finally, the number of cells was estimated by measuring the absorbance values at 595 nm. The IC50 values of the compounds Nucl 1, Nucl 4 and Nucl 5, both for cells in the exponential growth phase and for quiescent cells, are depicted in Table 2.
In addition, the effect of the analogs showing antiproliferative effect on quiescent cells, was studied in order to discriminate between an antitumoral effect and an unspecific cytotoxic effect. For this purpose, the semiconfluent cell monolayers were incubated for 24 hours in the absence of FBS with the analogs Nucl 1, Nucl 4 and Nucl 5, at a concentration of 100 μM. Subsequently, the cells were fixed and stained with toluidine in order to determine the number of cells. Simultaneously, the cytotoxic effect was determined by the MTT assay.

Data set [3] concerns breast carcinoma F3II cells. Nature of the data set: Monolayer wound assay of tumor cell migration. The note with it: for No of migrating cells: overnight, MEM with 10% FBS. As to the method:
The present assay consists in the determination of the antimigration effect of the selected compounds on the breast carcinoma cells migration. Cell motility is a key process in the invasion and tumor metastasis processes and it is closely regulated by the Rho-GTPases family, particularly by Rac.
Tumor cell migration in vitro was measured by the “monolayer wound” assay described previously (Alonso D F, Farias E F, Urtreger A, Ladeda V, Vidal M C and Bal de Kier Joffé E: Characterization of F3II, a mammary sarcomatoid carcinoma cell line originated from a mouse adenocarcinoma. J. Surgh. Oncol 1996, 62: 288-297). 0.5 mm width lines were made in confluent monolayers. After washing with PBS, the tumor cells were incubated overnight in MEM with 10% FBS and the monolayers were fixed and stained with methylene blue. The number of cells that moved along the free space were counted by using a 0.36 mm^2 graded grid, using a magnification of 100×, in 3 independent fields per each line.
Doses from 1 to 50 μM of the compounds were assessed, thereby finding a saturation of the antimigration effect in the 3 compounds studied, starting from 10 μM, obtaining an approximate inhibition of 30 to 50% respectively.

The results in this text go back to patent US20090324708A1, “COMPOUND HAVING INHIBITORY ACTIVITY ON A RHO-GTPASE CELL PROTEIN, A PROCESS FOR OBTAINING THE SAME, PHARMACEUTICAL COMPOSITIONS COMPRISING THEREOF AND A METHOD FOR THE TREATMENT OF RHO-GTPASE CELL PROTEIN-MEDIATED CONDITION” (Universidad Nacional De Quilmes, priority 2006, published 2009).

Marks after values point to notes of the source that are not given here.

Turning to `CC(=O)OC[C@H]1O[C@@H](n2cnc3c(=O)[nH]c(N)nc32)[C@H](OC(C)=O)[C@@H]1OC(C)=O` [Nucl 1, 2′,3′,5′-tri-O-acetyl-guanosine], the IC50 was 26 µM in data set [1] (Mus musculus, 48 hs, read-out: IC50 48 hs); 68 µM in data set [1] (Mus musculus, 72 hs, read-out: IC50 72 hs); over 100 µM in data set [2] (Mus musculus). Further, the cytotoxic effect entry in data set [2] was “In none of the cases a cytotoxic effect was observed”. Besides, in data set [3] (10 μM), the “No of migrating cells” value is listed as 97.7*. The compound further displayed an inhibition at 10 µM in data set [3] (Mus musculus) of 32.2%.
In the case of `CC(=O)OC[C@H]1O[C@@H](n2cnc3c(Cl)ncnc32)[C@H](OC(C)=O)[C@@H]1OC(C)=O` [Nucl 4, 6-chloro-2′,3′,5′-tri-O-acetyl-purine riboside], the half-maximal inhibitory concentration (IC50) in data set [1] (48 hs, read-out: IC50 48 hs) was 60 µM; in data set [1] (72 hs, read-out: IC50 72 hs), 56 µM; in data set [2], over 100 µM. Also, in data set [2], the cytotoxic effect result was “In none of the cases a cytotoxic effect was observed”. Moreover, the “Inhibition % (cell migration)” value in data set [3] (10 μM) is on record as 40.6%. For the same compound, the “No of migrating cells” value in data set [3] (10 μM) is 85.5**.
